Data: ChEMBL document CHEMBL1782011, “Facile synthesis, vasorelaxant properties and molecular modeling studies of 2-amino-8a-methoxy-4H-pyrano[3,2-c]pyridine-3-carbonitriles” (Eur J Med Chem, 2011)
Where a name gives a salt, the structure may show the parent alone.

species: Rattus norvegicus; test: Vasodilatory activity in Wistar rat thoracic aorta rings assessed as inhibition of norepinephrine hydrochloride-induced contraction; type: functional

| SMILES | IC50 [µM] |
| --- | --- |
| COc1cc2nc(N3CCN(C(=O)c4ccco4)CC3)nc(N)c2cc1OC [PRAZOSIN HYDROCHLORIDE] | 490 |
| CO[C@@]12CCN(C)C[C@H]1[C@H](c1ccc(C)cc1)C(C#N)=C(N)O2 | 600 |
| CO[C@@]12CCN(C)C[C@H]1[C@H](c1ccccc1)C(C#N)=C(N)O2 | 720 |
| COc1ccc([C@@H]2C(C#N)=C(N)O[C@]3(OC)CCN(C)C[C@@H]23)cc1 | 300 |
| CCN1CC[C@@]2(OC)OC(N)=C(C#N)[C@@H](c3ccc(N4CCOCC4)cc3)[C@@H]2C1 | 640 |
| CCN1CC[C@@]2(OC)OC(N)=C(C#N)[C@@H](c3ccc(N4CCCCC4)cc3)[C@@H]2C1 | 480 |
| CCN1CC[C@@]2(OC)OC(N)=C(C#N)[C@@H](c3ccccc3)[C@@H]2C1 | 680 |
| CO[C@@]12CCN(C)C[C@H]1[C@H](c1ccc(N3CCCCC3)cc1)C(C#N)=C(N)O2 | 450 |
| CCN1CC[C@@]2(OC)OC(N)=C(C#N)[C@@H](c3ccc(Cl)cc3)[C@@H]2C1 | 400 |

Further molecules by falling IC50, results first:

| IC50 [µM] | SMILES |
| --- | --- |
| 740 | CO[C@@]12CCN(C)C[C@H]1[C@H](c1ccc(N3CCOCC3)cc1)C(C#N)=C(N)O2 |
| 680 | CO[C@@]12CCN(C)C[C@H]1[C@H](c1cccs1)C(C#N)=C(N)O2 |
| 680 | CCN1CC[C@@]2(OC)OC(N)=C(C#N)[C@@H](c3ccc(OC)cc3)[C@@H]2C1 |
| 520 | CO[C@@]12CCN(C)C[C@H]1[C@H](c1ccc(F)cc1)C(C#N)=C(N)O2 |
| 490 | CCN1CC[C@@]2(OC)OC(N)=C(C#N)[C@@H](c3cccs3)[C@@H]2C1 |
| 370 | CO[C@@]12CCN(C)C[C@H]1[C@H](c1ccc(Cl)cc1)C(C#N)=C(N)O2 |
